This passage reports TGI results from PubChem BioAssay (NCI).

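Results reflect a 48-hour exposure of cells in 96-well plates to compound at five concentrations. At the TGI there is no net growth.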 Where only a bound is given, the exact number is not on record here.

Among the test systems are 786-0 renal; BT-549 breast; EKVX NSCLC; HL-60(TB) leukemia; K-562 leukemia; M14 melanoma; MALME-3M melanoma; MCF7 breast; OVCAR-3 ovarian; UACC-257 melanoma.
Holding throughout (experiment): DTP human tumour cell line panel, 48 h

In general, TGI refers to the concentration at which net growth stops. For the compound `O=C(CNc1ccccc1[N+](=O)[O-])Nn1c(-c2ccccc2)nc2ccccc2c1=O`, the TGI in the test on 786-0 renal is 34.5 µM; in the test on BT-549 breast, 35.3 µM; with EKVX NSCLC it was 36.2 µM; with HL-60(TB) leukemia it was more than 100 µM; with K-562 leukemia, 41.9 µM; in the test with M14 melanoma, 38.1 µM. Moreover, the TGI in the test on MALME-3M melanoma is 40.6 µM; in the test with MCF7 breast, 34.2 µM; in the test on OVCAR-3 ovarian, more than 100 µM; with UACC-257 melanoma, more than 10 µM.
With `CCN(CC)CCNC(=O)c1cn2c(ccc3sc4ccccc4c(=O)c32)n1`, the concentration for total growth inhibition (TGI) was 19.5 µM in the test with 786-0 renal; 28.5 µM with BT-549 breast; 35.3 µM in the test with EKVX NSCLC; 25.4 µM in the test on HL-60(TB) leukemia; 36.8 µM in the test with K-562 leukemia; 29 µM in the test on M14 melanoma. Moreover, the total growth inhibition concentration (TGI) with MALME-3M melanoma stood at 26.9 µM; in the test with MCF7 breast, 38.2 µM; with OVCAR-3 ovarian, 26.7 µM; in the test on UACC-257 melanoma, 30.1 µM.
`O=C(Cc1ccccc1)Nn1c(-c2ccccc2)nc2ccccc2c1=O`: the TGI in the test with 786-0 renal, with BT-549 breast, with EKVX NSCLC, in the test with HL-60(TB) leukemia, in the test with K-562 leukemia and with M14 melanoma was more than 100 µM each time. Further, the TGI in the test with MALME-3M melanoma, in the test with MCF7 breast, in the test with OVCAR-3 ovarian and in the test with UACC-257 melanoma was more than 100 µM in each case.
With `CC1C2(C)OC(=N)C(C#N)(C(c3cccc([N+](=O)[O-])c3)O2)C1(C#N)C#N` (configuration not stated), the concentration for total growth inhibition (TGI) with 786-0 renal was 45.2 µM; in the test on BT-549 breast, more than 100 µM; with EKVX NSCLC, 98.3 µM; in the test on HL-60(TB) leukemia it was 39 µM; in the test with K-562 leukemia it was more than 100 µM; in the test with M14 melanoma, 38.7 µM. The concentration for total growth inhibition (TGI) with MALME-3M melanoma amounted to 73 µM; with MCF7 breast, 50.2 µM; in the test with UACC-257 melanoma, 49.6 µM.
For `Cc1noc(NC2=CC(=O)C(=O)c3ccccc32)c1C`, the concentration for total growth inhibition (TGI) in the test on 786-0 renal was more than 100 µM; with BT-549 breast, 50.2 µM; in the test on EKVX NSCLC, more than 100 µM; in the test with HL-60(TB) leukemia, 52.2 µM; with K-562 leukemia, 0.872 µM; with M14 melanoma, more than 100 µM. For the same compound, the concentration for total growth inhibition (TGI) with MALME-3M melanoma was 17.6 µM; with MCF7 breast, 17.9 µM; in the test with OVCAR-3 ovarian, more than 100 µM; with UACC-257 melanoma, 64 µM.
On to `O=C(O)/C(Cc1ccc([N+](=O)[O-])cc1)=N\O`, for which the TGI in the test on 786-0 renal, with BT-549 breast, in the test with EKVX NSCLC, in the test on HL-60(TB) leukemia, in the test with K-562 leukemia and in the test on M14 melanoma was more than 100 µM each time. For the same compound, the TGI in the test with MALME-3M melanoma, with MCF7 breast, with OVCAR-3 ovarian and in the test with UACC-257 melanoma was more than 100 µM throughout.
For `CC[C@H]1C=CCC[C@@]2(C[C@@H]3CC[C@H]4[C@@H](C(=O)OCCCCCCCCCCCCCCCC(=O)N(CCCN)C[C@@H](O)CCN)[C@@]5(CCC[C@@H](C)O5)NC(=[N+]34)N2)O1`, the TGI is 3.3 µM with 786-0 renal; 4.41 µM in the test on BT-549 breast; 3.25 µM in the test with EKVX NSCLC; 4.24 µM in the test on HL-60(TB) leukemia; 3.18 µM in the test with K-562 leukemia; 3.82 µM with M14 melanoma. Moreover, the TGI with MALME-3M melanoma was 3.24 µM; in the test on MCF7 breast, 3.16 µM; in the test with OVCAR-3 ovarian it was more than 10 µM; with UACC-257 melanoma it was 3.41 µM.
Regarding `Cc1ccc2oc(=O)c(C(=O)Nc3nc(C45CC6CC(CC(C6)C4)C5)cs3)cc2c1`, the concentration for total growth inhibition (TGI) with 786-0 renal, in the test with BT-549 breast, in the test with EKVX NSCLC, in the test on HL-60(TB) leukemia, with K-562 leukemia and in the test with MALME-3M melanoma was more than 100 µM each time. Also, the TGI with MCF7 breast, with OVCAR-3 ovarian and in the test on UACC-257 melanoma was more than 100 µM each time.
For the compound `CCCCCCCCCCCCCCCC(=O)N(CCCCCCCCCCC(=O)O)CC(O)C(O)C(OC1OC(CO)C(O)C(O)C1O)C(O)CO` (configuration not stated), the total growth inhibition concentration (TGI) in the test on 786-0 renal was more than 100 µM; in the test on BT-549 breast, 68 µM; in the test with EKVX NSCLC, more than 100 µM; in the test on HL-60(TB) leukemia, 47.7 µM; with K-562 leukemia it was 41.4 µM; in the test with M14 melanoma, 50.2 µM. In addition, the TGI was 36.3 µM in the test on MALME-3M melanoma, more than 100 µM in the test on MCF7 breast, more than 100 µM in the test on OVCAR-3 ovarian and 55.7 µM in the test on UACC-257 melanoma.
Regarding `CC(C)C(/C=C/c1ccc(Cl)c(Cl)c1)=N\NC(=O)N/N=C(/C=C/c1ccc(Cl)c(Cl)c1)C(C)C`, the TGI with 786-0 renal, in the test with BT-549 breast, in the test on EKVX NSCLC, in the test with HL-60(TB) leukemia, in the test on K-562 leukemia and in the test on M14 melanoma was more than 100 µM throughout. The concentration for total growth inhibition (TGI) in the test on MALME-3M melanoma, with MCF7 breast, in the test with OVCAR-3 ovarian and with UACC-257 melanoma was more than 100 µM throughout.
As to `CCOC(=O)C(NC(=O)c1ccccc1)(N1CCOCC1)C(F)(F)F` (configuration not stated), the TGI in the test on 786-0 renal, in the test with BT-549 breast, in the test on EKVX NSCLC, in the test on HL-60(TB) leukemia, with K-562 leukemia and in the test with M14 melanoma was more than 100 µM throughout. Moreover, the TGI in the test on MALME-3M melanoma, with MCF7 breast, in the test with OVCAR-3 ovarian and with UACC-257 melanoma was more than 100 µM each time.
Take `CCNC(=O)c1c(O)c2ccccc2[nH]c1=O`: the concentration for total growth inhibition (TGI) in the test on 786-0 renal, in the test with BT-549 breast, with EKVX NSCLC, in the test with HL-60(TB) leukemia, in the test with K-562 leukemia and in the test with MALME-3M melanoma was more than 100 µM in each case. Moreover, the TGI in the test with MCF7 breast, in the test with OVCAR-3 ovarian and in the test with UACC-257 melanoma was more than 100 µM throughout.
On to `CCOP(=O)(OCC)C(C#N)Cc1ccco1` (configuration not stated), for which the TGI with 786-0 renal, in the test with BT-549 breast, in the test on EKVX NSCLC, in the test with HL-60(TB) leukemia, in the test on K-562 leukemia and in the test with M14 melanoma was more than 10 µM throughout. Moreover, the TGI in the test with MALME-3M melanoma, with MCF7 breast, in the test with OVCAR-3 ovarian and with UACC-257 melanoma was more than 10 µM each time.
